Laboratory results reported in patent publication US20100075907A1, “NEUROMEDIN U RECEPTOR AGONISTS AND USES THEREOF” (priority 2006, published 2010).
Starred links: 1 amine or outer side, 2 acyl side, 3 side chain; linkers in the order of their positions; H or OH if unused. Non-standard residues stand in square brackets, D forms with d. Residues, ends and D or L forms follow the SMILES beside them. *: point of attachment. X2 = CCN1C(=O)CC(SC[C@H](NC(C)=O)C(=O)NCCCOCCOCCOCCCN*)C1=O; Succinimide(1-Et,3-yl) = CCN1C(=O)CC(*)C1=O; Suc = O=C(CCC(=O)[*:2])[*:1]

Key:
Assay type in all cases: cell-based
[1] = biological target: T1, rat NMUR1-TTG (Rattus norvegicus, UniProt Q9JJI5); assay: FLIPR calcium mobilization assay, rat NMUR1-TTG; set-up: expressed in transfected cells; host or cells: FLP-In CHO or HEK-293 FLP-In cells (pcDNA5)
T1 sequence (Q9JJI5 1-425): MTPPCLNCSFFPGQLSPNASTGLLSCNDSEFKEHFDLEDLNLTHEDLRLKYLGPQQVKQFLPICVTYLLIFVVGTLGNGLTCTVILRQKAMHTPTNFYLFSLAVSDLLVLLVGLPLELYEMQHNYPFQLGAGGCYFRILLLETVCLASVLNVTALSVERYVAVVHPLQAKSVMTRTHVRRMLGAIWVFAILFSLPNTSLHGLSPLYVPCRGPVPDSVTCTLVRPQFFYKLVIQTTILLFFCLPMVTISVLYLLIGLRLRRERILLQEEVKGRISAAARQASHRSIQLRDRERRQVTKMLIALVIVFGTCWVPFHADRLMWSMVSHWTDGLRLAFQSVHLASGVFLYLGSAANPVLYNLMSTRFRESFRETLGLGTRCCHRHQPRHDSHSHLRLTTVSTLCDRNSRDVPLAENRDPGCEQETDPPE
Description: (§1) Human, mouse or rat cDNAs encoding NMUR1 or NMUR2 (as described in Howard et al. Nature 406: 70-74 (2000) were subcloned in pcDNA5 (Invitrogen) and transfected into FLP-In CHO cells and HEK-293 FLP-In cells purchased from Invitrogen (Carlsbad, Calif.) using lipofectamine (Invitrogen). The Flp-In system allows integration and expression of a particular gene of interest at a specific genomic location utilizing the Flp recombinase from yeast. The transfected cells were selected by growth in medium containing 200 μg/mL hygromycin (Invitrogen). Populations were frozen at early passage numbers, and these stocks were used for further studies. Stable clones that expressed the mRNAs were identified functionally by FLIPR as well as by RT-PCR. […] Two different rodent NMUR1 cell lines were thus generated: one with the codon as predicted from the genomic databases and another cell line with an engineered methionine (ATG) as the start codon. Additionally, stable cell lines expressing the human receptors were generated in HEK-293/aeq17 cells which stably express the aequorin gene under the CMV promoter. The human NMUR2 cDNA was cloned into pcDNA3.1 and human NMUR1 was subcloned into pIRES-puro (Clontech, Mountain View, Calif.), after transfection cells were selected in media containing G418 and either hygromycin (NMUR2) or puromycin (NMUR1).
(§2) The NMU receptors signal primarily through Gαq/11 proteins; therefore calcium mobilization assays can be utilized for functional activity.
(§3) Stable cell lines expressing human and or rodent NMUR1 or human NMUR2 receptors were plated at a density of 12,000 cells per well overnight on poly-lysine coated 384-well black-walled plates. The following day, the media was removed from the plates and the cells were subsequently loaded with Fluo-3 (Molecular Probes), a calcium sensitive dye, diluted in FLIPR buffer (1× Hank's buffered saline containing 20 mM HEPES, 0.1% BSA, 2.5 mM probenecid (Sigma) and 1.6 mM TR40). All reagents are from Invitrogen unless otherwise noted. Peptide stocks were resuspended in DMSO at a stock concentration of 2 mM and diluted in FLIPR buffer on the day of the experiment to a 4 μM working stock solution.
(§4) After a 90 minute incubation at room-temperature, cell plates were loaded onto a FLIPR (Molecular Devices) to monitor cellular fluorescence (excitation=488 nm; emission=540 nm) before and after compound/peptide addition. Eight to twelve point dose responses were tested on NMUR-expressing cell lines using FLIPR with 1 μM peptide as the highest dose. The response after peptide addition was taken as the maximum fluorescence units minus the fluorescence immediately prior to stimulation for each well. EC50 values were calculated using GraphPad Prism (San Diego, Calif.) software.
(§5) In vitro responses of Neuromedin U receptor agonists (NMU1 to NMU25) in the FLIPR assay for human (Table 3), mouse (Table 4) and rat (Table 5) NMUR1 and NMUR2. EC50s are reported in nM values. Percent activity refers to the maximum response at 1 μM compared to the hNMU-25 response at the same concentration. NT=not tested.

[2] = biological target: rat NMUR2 (Rattus norvegicus, UniProt Q9ESQ4); assay: FLIPR calcium mobilization assay, rat NMUR2; set-up: expressed in transfected cells; host or cells: FLP-In CHO or HEK-293 FLP-In cells (pcDNA5); conditions: for EC50: FLIPR
rat NMUR2, sequence (Q9ESQ4 whole entry): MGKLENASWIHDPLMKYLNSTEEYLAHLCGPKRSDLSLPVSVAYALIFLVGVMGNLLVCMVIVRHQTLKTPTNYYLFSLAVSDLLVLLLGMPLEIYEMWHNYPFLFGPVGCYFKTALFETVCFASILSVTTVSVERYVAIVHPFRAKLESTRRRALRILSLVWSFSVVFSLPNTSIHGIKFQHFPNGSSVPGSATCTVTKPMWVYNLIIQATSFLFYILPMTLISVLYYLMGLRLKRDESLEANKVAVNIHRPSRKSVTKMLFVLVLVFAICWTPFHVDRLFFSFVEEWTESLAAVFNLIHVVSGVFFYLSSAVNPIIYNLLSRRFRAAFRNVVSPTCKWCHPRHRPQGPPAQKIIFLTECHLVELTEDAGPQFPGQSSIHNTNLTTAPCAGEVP
Description: as §1, §2, §3, §4, §5

[3] = biological target: hNMUR2 (Homo sapiens, UniProt Q9GZQ4); assay: FLIPR calcium mobilization assay, human NMUR2; set-up: expressed in transfected cells; host or cells: FLP-In CHO or HEK-293 FLP-In cells (pcDNA5); HEK-293/aeq17 lines (pcDNA3.1) were also made; conditions: for EC50: FLIPR
hNMUR2, sequence (Q9GZQ4 whole entry): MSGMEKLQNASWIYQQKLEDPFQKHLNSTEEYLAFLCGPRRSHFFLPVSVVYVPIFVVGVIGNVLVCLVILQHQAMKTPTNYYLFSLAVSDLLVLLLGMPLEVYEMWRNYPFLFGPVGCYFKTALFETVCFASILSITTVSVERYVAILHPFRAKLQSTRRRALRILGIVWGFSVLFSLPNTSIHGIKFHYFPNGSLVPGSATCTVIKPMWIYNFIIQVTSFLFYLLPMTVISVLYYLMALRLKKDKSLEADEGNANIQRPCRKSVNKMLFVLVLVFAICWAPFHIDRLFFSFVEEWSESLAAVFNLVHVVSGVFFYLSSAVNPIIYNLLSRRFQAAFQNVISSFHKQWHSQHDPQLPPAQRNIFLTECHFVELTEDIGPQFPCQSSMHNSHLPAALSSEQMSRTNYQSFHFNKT
Description: as §1, §2, §3, §4, §5

[4] = biological target: T2, hNMUR1 (Homo sapiens, UniProt Q9HB89); assay: FLIPR calcium mobilization assay, human NMUR1; set-up: expressed in transfected cells; host or cells: FLP-In CHO or HEK-293 FLP-In cells (pcDNA5); HEK-293/aeq17 lines (pIRES-puro) were also made
T2 sequence (Q9HB89 1-426): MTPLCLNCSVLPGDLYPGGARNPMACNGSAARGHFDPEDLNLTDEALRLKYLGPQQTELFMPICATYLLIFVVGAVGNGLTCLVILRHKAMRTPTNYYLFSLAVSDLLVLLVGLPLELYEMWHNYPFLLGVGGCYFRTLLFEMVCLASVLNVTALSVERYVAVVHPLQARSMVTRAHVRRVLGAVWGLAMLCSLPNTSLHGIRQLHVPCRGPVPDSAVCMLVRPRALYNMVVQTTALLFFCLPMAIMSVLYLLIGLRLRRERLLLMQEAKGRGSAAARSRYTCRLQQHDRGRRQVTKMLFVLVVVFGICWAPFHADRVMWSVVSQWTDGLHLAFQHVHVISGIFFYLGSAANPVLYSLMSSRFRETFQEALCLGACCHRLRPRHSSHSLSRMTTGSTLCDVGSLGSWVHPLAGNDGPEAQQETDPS
Description: as §1, §2, §3, §4, §5

[5] = maximum response at 1 μM compared to hNMU-25, rat NMUR1-TTG
[6] = maximum response at 1 μM compared to hNMU-25, rat NMUR2
[7] = maximum response at 1 μM compared to hNMU-25, human NMUR2
[8] = maximum response at 1 μM compared to hNMU-25 response at same concentration, human NMUR1

% Activity [1, 5]	% Activity [2, 6]	% Activity [3, 7]	% Activity [4, 8]	Compound	% Activity ([1]; functional, rat R1-TTG, relative to native hNMU responses)	EC50 ([2]; rat NMUR2)	IC50 ([2]; functional data, rat R2)	% Activity ([2]; functional, rat R2, relative to native hNMU responses)	EC50 ([3]; human NMUR2)	% Activity ([3]; functional, human R2, relative to native hNMU responses)	% Activity ([4]; functional, human R1, relative to native hNMU responses)
107.5%	100%	101%	91.5%	CCN1C(=O)CC(SC[C@H](NC(C)=O)C(=O)NCCCOCCOCCOCCCNC(=O)CCC(=O)N[C@@H](Cc2ccccc2)C(=O)N[C@@H](CC(C)C)C(=O)N[C@@H](Cc2ccccc2)C(=O)N[C@@H](CCCNC(=N)N)C(=O)N2CCC[C@H]2C(=O)N[C@@H](CCCNC(=N)N)C(=O)N[C@@H](CC(N)=O)C(N)=O)C1=O (some centres unmarked) [NMU15, Ac-C1-Ttds-FLFRPRN-CONH2] ({X2-Suc}-FLFRPRN-NH2)	–	2.2 nM	–	–	–	–	–
105.3%	100%	99.8%	100%	CCN1C(=O)CC(SC[C@H](NC(C)=O)C(=O)N[C@@H](C)C(=O)N[C@@H](CO)C(=O)N[C@@H](CCC(N)=O)C(=O)N[C@@H](CO)C(=O)N[C@@H](CCCNC(=N)N)C(=O)NCC(=O)N[C@@H](Cc2ccc(O)cc2)C(=O)N[C@@H](Cc2ccccc2)C(=O)N[C@@H](CC(C)C)C(=O)N[C@@H](Cc2ccccc2)C(=O)N[C@@H](CCCNC(=N)N)C(=O)N2CCC[C@H]2C(=O)N[C@@H](CCCNC(=N)N)C(=O)N[C@@H](CC(N)=O)C(N)=O)C1=O (some centres unmarked) [NMU17] (Ac-C(Succinimide(1-Et,3-yl))ASQSRGYFLFRPRN-NH2)	–	–	–	–	1.5 nM	–	–
100%	100%	105%	95.9%	CCN1C(=O)CC(SC[C@H](NC(C)=O)C(=O)N[C@@H](Cc2ccccc2)C(=O)N[C@@H](CCC(N)=O)C(=O)N[C@@H](CO)C(=O)N2CCC[C@H]2C(=O)N[C@@H](Cc2ccccc2)C(=O)N[C@@H](C)C(=O)N[C@@H](CO)C(=O)N[C@@H](CCC(N)=O)C(=O)N[C@@H](CO)C(=O)N[C@@H](CCCNC(=N)N)C(=O)NCC(=O)N[C@@H](Cc2ccc(O)cc2)C(=O)N[C@@H](Cc2ccccc2)C(=O)N[C@@H](CC(C)C)C(=O)N[C@@H](Cc2ccccc2)C(=O)N[C@@H](CCCNC(=N)N)C(=O)N2CCC[C@H]2C(=O)N[C@@H](CCCNC(=N)N)C(=O)N[C@@H](CC(N)=O)C(N)=O)C1=O (some centres unmarked) [NMU19] (Ac-C(Succinimide(1-Et,3-yl))FQSPFASQSRGYFLFRPRN-NH2)	–	–	–	–	–	–	–
96.4%	98.8%	105%	95.6%	CCN1C(=O)CC(SC[C@H](NC(C)=O)C(=O)N[C@@H](CSC2CC(=O)N(CC)C2=O)C(=O)N[C@@H](Cc2ccccc2)C(=O)N[C@@H](CCCNC(=N)N)C(=O)N[C@H](C(=O)N[C@@H](CC(=O)O)C(=O)N[C@@H](CCC(=O)O)C(=O)N[C@@H](CCC(=O)O)C(=O)N[C@@H](Cc2ccccc2)C(=O)N[C@@H](CCC(N)=O)C(=O)N[C@@H](CO)C(=O)N2CCC[C@H]2C(=O)N[C@@H](Cc2ccccc2)C(=O)N[C@@H](C)C(=O)N[C@@H](CO)C(=O)N[C@@H](CCC(N)=O)C(=O)N[C@@H](CO)C(=O)N[C@@H](CCCNC(=N)N)C(=O)NCC(=O)N[C@@H](Cc2ccc(O)cc2)C(=O)N[C@@H](Cc2ccccc2)C(=O)N[C@@H](CC(C)C)C(=O)N[C@@H](Cc2ccccc2)C(=O)N[C@@H](CCCNC(=N)N)C(=O)N2CCC[C@H]2C(=O)N[C@@H](CCCNC(=N)N)C(=O)N[C@@H](CC(N)=O)C(N)=O)C(C)C)C1=O (some centres unmarked) [NMU22] (Ac-C(Succinimide(1-Et,3-yl))C(Succinimide(1-Et,3-yl))FRVDEEFQSPFASQSRGYFLFRPRN-NH2)	–	–	–	–	–	–	–

Compound	% Activity [1, 5]	% Activity [2, 6]	% Activity [3, 7]	% Activity [4, 8]	% Activity ([1]; functional, rat R1-TTG, relative to native hNMU responses)	EC50 ([2]; rat NMUR2)	IC50 ([2]; functional data, rat R2)	% Activity ([2]; functional, rat R2, relative to native hNMU responses)	EC50 ([3]; human NMUR2)	% Activity ([3]; functional, human R2, relative to native hNMU responses)	% Activity ([4]; functional, human R1, relative to native hNMU responses)
CCN1C(=O)CC(SC[C@H](NC(C)=O)C(=O)N[C@@H](Cc2ccccc2)C(=O)N[C@@H](CCCNC(=N)N)C(=O)N[C@H](C(=O)N[C@@H](CC(=O)O)C(=O)N[C@@H](CCC(=O)O)C(=O)N[C@@H](CCC(=O)O)C(=O)N[C@@H](Cc2ccccc2)C(=O)N[C@@H](CCC(N)=O)C(=O)N[C@@H](CO)C(=O)N2CCC[C@H]2C(=O)N[C@@H](Cc2ccccc2)C(=O)N[C@@H](C)C(=O)N[C@@H](CO)C(=O)N[C@@H](CCC(N)=O)C(=O)N[C@@H](CO)C(=O)N[C@@H](CCCNC(=N)N)C(=O)NCC(=O)N[C@@H](Cc2ccc(O)cc2)C(=O)N[C@@H](Cc2ccccc2)C(=O)N[C@H](C)C(=O)N[C@@H](Cc2c[nH]c3ccccc23)C(=O)N[C@@H](CCCNC(=N)N)C(=O)N2CCC[C@H]2C(=O)N[C@@H](CCCNC(=N)N)C(=O)N[C@@H](CC(N)=O)C(N)=O)C(C)C)C1=O (some centres unmarked) [NMU13] (Ac-C(Succinimide(1-Et,3-yl))FRVDEEFQSPFASQSRGYF[dA]WRPRN-NH2)	94.6%	0.0%	0.0%	100%	94%	> 1000 nM	> 1000 nM	24%	> 1000 nM	0%	91%
